This is an account of results in patent US20260215427A1, “NON-BIPYRIDYL SALT HERBICIDE, PREPARATION METHOD THEREFOR, AND USE THEREOF” (priority 2022, published 2026).

The nature of data set [1]: Conversion of the compound of formula 2 to PQ under lighting and air conditions in physiological saline. In kind it is physicochemical. The conditions noted are these: air; for Yield (conversion to PQ): darkness, 72 h; for Yield (conversion rate to PQ): natural light, 24 h.
The test system of a further data set is Acorus calamus. Briefly: Herbicidal performance, leaf spray under air and sunlight. In kind it is in vivo. From the text:
(§1) As is well-known, Bermuda grass, Arabidopsis thaliana, and Acorus calamus are naturalized green weeds in most parts of the world and are also invasive grasses. Photosynthesis occurs throughout their entire leaves and bundles. […] Therefore, Bermuda grass, Acorus calamus, and Arabidopsis thaliana were selected as plant models to evaluate the herbicidal performance of the compounds in the present invention.
(§2) Under air and sunlight, the compound of formula 2 of the present invention was sprayed on the leaf surface at concentrations of 1, 2, 4, and 8 times the PQ equivalent, respectively. Paraquat herbicide was used as the positive control, and physiological saline was used as the blank control group. The diameter of the observation range was 8 cm.

The test system of data set [2] is Arabidopsis thaliana. Described as above. In kind it is in vivo.
Description: as §1, §2

The subject of data set [3] is Bermuda grass. The data set is described as above. In kind it is in vivo.
Description: as §1, §2

Data set [4] in a line: Acute toxicity test and LD50 determination in mice, intraperitoneal injection. Format: in vivo. The conditions noted are these: mouse, in vivo, ip; mice, intraperitoneal injection, seventh day. On the procedure: (§3) In order to evaluate the safety of compound 2 of the present invention in vivo, acute toxicity tests were conducted on mice. Firstly, the LD50 of diene diamine in mice was measured. […] The toxicity of diene diamine in mice is low and the safety is high.

The test system of data set [5] is mice. The description is as above. Format: in vivo. How it is done:
as §3

The test system of data set [6] is mice. As to the kind of experiment: Survival rate and body weight of mice after intraperitoneal injection. Format: in vivo. The conditions noted are these: 0.19 mmol/kg intraperitoneal.
For data set [7], the system named is mice. Briefly: Organ indices and biochemical indicators 48 hours after intraperitoneal injection in mice. In kind it is in vivo. An excerpt: P<0.05 is considered statistically significant, with 10 mice per group (n=10).
However, no significant differences in these biochemical indicators were detected after intraperitoneal injection of the compound of formula 2 diene diamine at the same molar concentration.

Data set [8] concerns mice. Briefly: Damage of major organs (histopathology) 48 hours after intraperitoneal injection in mice. In kind it is in vivo. Particulars: 48 hours after intraperitoneal administration. An excerpt:
The data is expressed as mean±standard error, with 6 mice per group (n=6), and P<0.05 indicates statistically significant differences. Scale bar: 50 μm.

In data set [9] the test system is mice. Briefly: Transmission electron microscopy of main organs 48 hours after intraperitoneal injection in mice. Format: in vivo. Particulars: 0.19 mmol/kg intraperitoneal. How it is done:
48 hours after intraperitoneal injection of 0.19 mmol/kg of paraquat or the compound of formula 2, transmission electron microscopy samples of the lung, liver, kidney, and heart were collected. The black arrow indicated mitochondrial damage, and the electron microscopy scale of the heart group was 200 nm, and the electron microscope scale of other groups was 100 nm.

Data set [10] can be described thus: Direct cytotoxicity, cell viability and IC50. Particulars: 24 hours. In kind it is cell-based. From the text:
(§4) PQ is rapidly absorbed and distributed to the lungs, kidneys, liver, and muscles after entering the human body. Death caused by ingestion of PQ is usually due to multiple organ failure, such as pulmonary edema, kidney and liver failure. Therefore, lung cells (A549 cells), kidney cells (COS-7), and liver cells (Hep G2) were selected to evaluate the direct cytotoxicity of diene diamine.

In data set [11] the test system is A549 cells. As to the kind of experiment: Direct cytotoxicity, cell viability and IC50. Format: cell-based.
Description: as §4

Data set [12] concerns COS-7 cells. As to the kind of experiment: Direct cytotoxicity, cell viability and IC50. Format: cell-based.
Description: as §4

Data set [13] has as its system Hep G2 cells. Briefly: Direct cytotoxicity, cell viability and IC50. In kind it is cell-based.
Description: as §4

The test system of data set [14] is A549 cells. As to the kind of experiment: Intracellular ROS levels, DCF fluorescence, flow cytometry. Format: cell-based. The conditions noted are these: 100 μM, 18 hours. On the procedure:
(§5) The above three types of cells were exposed to 100 μM PQ (100) and 100 μM of the compound of formula 2 and incubated for 18 hours, and the intracellular reactive oxygen species (ROS) levels were quantified using flow cytometry. Intracellular ROS levels were measured using DCF fluorescence (n=6).

Data set [15] deals with COS-7 cells. The description is as above. Format: cell-based. Particulars: 100 μM, 18 hours. On the procedure: as §5
Data set [16] deals with Hep G2 cells. The description is as above. In kind it is cell-based. The conditions noted are these: 100 μM, 18 hours. How it is done:
as §5

Data set [17] deals with A549 cells. Briefly: Apoptosis, Annexin V-FITC and propidium iodide staining. The conditions noted are these: 24 hours of incubation. In kind it is cell-based. From the text: (§6) The data was expressed as + SEM. *p<0.05, p<0.05, **p<0.01, ***p<0.001, ****p<0.0001.
Data set [18] concerns COS-7 cells. The description is as above. Format: cell-based. Particulars: 24 hours of incubation.
Description: as §6

In data set [19] the test system is Hep G2 cells. The description is as above. Format: cell-based. Particulars: 24 hours of incubation.
Description: as §6

Data set [20] concerns Arabidopsis thaliana. As to the kind of experiment: Herbicidal mechanism: LC-MS, chlorophyll and photosystem parameters, electron microscopy after spraying. Format: in vivo.
Data set [21] deals with Bermuda grass. Briefly: Herbicidal performance of the compound of formula 3, leaf spray, diquat as positive control. In kind it is in vivo. Particulars: air and sunlight. From the text:
Under air and sunlight, the compound of formula 3 of the present invention was sprayed on the surface of leaves, with herbicide diquat as a positive control. The diameter of the observation range was 10 cm.

Setting [22] is: 25 °C, listed as diene diamine compound.
Where [23] appears, read: various concentrations (1, 2, 4, 8 times PQ equivalent), air and sunlight.
The mark [24] stands for this setting: 50 mg/kg paraquat or same dose, 48 hour.

Turning to `CN1CC=C(C2=CCN(C)CC2)CC1` [compound of formula 2, 1,1′-dimethyl-1,1′, 2,2′, 3,3′, 6,6′-octahydro-4,4′-bipyridine], the “Yield (conversion to PQ)” value in [1] (25 °C) is listed as 0%; in data set [1] (setting [22]) it was “hardly converted to PQ”. The “Yield (conversion rate to PQ)” value was 30% in data set [1] (25 °C); “about 30%” in data set [1] (setting [22]); 63% in data set [1] (40 °C); “about 63%” in [1] (40 °C, listed as diene diamine compound). The “weed control effect compared with PQ” value with Acorus calamus (same or twice the dose of PQ), in the data set with Arabidopsis thaliana [2] (same or twice the dose of PQ) and in the data set with Bermuda grass [3] (same or twice the dose of PQ) was “slightly delayed weed control effect” in each case. For the same compound, the “state of leaves 24 hours after spraying” value with Acorus calamus (setting [23]), in the data set with Arabidopsis thaliana [2] (setting [23]) and in the data set with Bermuda grass [3] (setting [23]) was “began to wither” throughout. For the same compound, in [4], the LD50 – broadly, the dose expected to kill half of the subjects tested – at 7 day turned out to be 1000 mg/kg. The deaths result in the data set on mice [5] (1200 mg/kg intraperitoneal, 8 mice) is on record as “Eight mice died”; with mice [5] (900 and 1050 mg/kg intraperitoneal, respectively, 8 mice per dose) it was “Three mice died”. Moreover, the survival result with mice [5] (300 and 600 mg/kg intraperitoneal, third day after administration) was “all mice survived”; in the data set with mice [6] (after 168 hours), “all mice in the group of the compound of formula 2 survived”. Also, the “weight of the mice” value in the data set on mice [6] is “continued to steadily increase”. For the same compound, the “levels of SOD and CAT in lung tissue” value with mice [7] (setting [24]) is given as “no significant changes”. The “serum levels of TNF-α, IL-B, IL-6, AST, ALT, SCr, BUN, and uric acid” value in the data set on mice [7] (setting [24]) is “no significant changes”. Further, in the data set with mice [7] (50 mg/kg paraquat or same molar dose, 48 hours), the “lung, liver, and kidney indices compared with the control group” value was “no statistical difference”. In addition, the cardiac index entry in the data set with mice [7] (50 mg/kg paraquat or same molar dose, 48 hours, among the three groups) is “no statistical difference”. Further, the “pathological damage of major tissues (lung, liver, kidney, heart)” value in the data set on mice [8] is listed as “no significant pathological damage”. Further, in the data set with mice [9], the “mitochondrial structure in lung, liver, kidney, and heart tissues (transmission electron microscopy)” value was “No significant mitochondrial structural damage”. Further, the IC50 (commonly the concentration at which inhibition is half-maximal) was determined as 1570 µM in data set [10] (African green monkey, Cos-7 cells); 5770 µM in [10] (human, A549 cells); 1360 µM in [10] (human, hep G2 cells). For the same compound, the cell viability result was “no significant changes in cell viability” with A549 cells [11] (A549, co-culture 24 hours, concentration gradient); “no significant changes in cell viability” in the data set on COS-7 cells [12] (COS-7, co-culture 24 hours, concentration gradient); “no significant changes in cell viability” in the data set on Hep G2 cells [13] (Hep G2, co-culture 24 hours, concentration gradient). The “IC50 value relative to the PQ treatment group” value in the data set on A549 cells [11] (A549 cells), in the data set with COS-7 cells [12] (COS-7 cells) and with Hep G2 cells [13] (Hep G2 cells) was “increased by dozens of times” throughout. Besides, the “intracellular ROS production” value in the data set on A549 cells [14], with COS-7 cells [15] and in the data set on Hep G2 cells [16] was “no significant changes” each time. Also, the “apoptosis rate compared to the PQ group” value with A549 cells [17], with COS-7 cells [18] and in the data set with Hep G2 cells [19] was “significantly reduced” throughout. Further, in the data set with Arabidopsis thaliana [20], the “electron microscopy findings after 8 hours” value was “chloroplast stroma lysis, swelling of thylakoids and mitochondrial cristae”. The “electron microscopy findings after 24 hours” value with Arabidopsis thaliana [20] is “rupture of mesophyll cell nuclei, mitochondria, and chloroplast envelopes”. In addition, the “chlorophyll content, maximum fluorescence quantum yield of PSII, Fv/Fm value, and SPAD” value in the data set on Arabidopsis thaliana [20] (natural sunlight and air) is “significant decreases”.

Turning to `C1=CCN2CCN3CC=CCC3C2C1` (stereo not drawn) [compound of formula 3, 1,4,6,7,9,12,12a, 12b octahydrodipyridin [1,2-a: 2′, 1′-c]pyrazine], the “weed control effect relative to diquat” value with Bermuda grass [21] is given as “comparable to that of diquat”. In the data set with Bermuda grass [21] (concentration not specified), the “state of leaves 3 days after spraying” value is given as “began to wither” and the “state of leaves after 5 days” value is reported as “completely withered”.
